Measurements from ChEMBL document CHEMBL3507680, “University of Dundee, Gates Library screen for HepG2 cell viability”.

assay: Human HepG2 cell viability assay in 384 well format; assay type: toxicity, cell-based; parameters: dose 125 nL, time 70.5 hour; cytotoxicity at 70.5 h: concentration not given beside the values; conditions: HepG2 cells, read-out: Inhibition

Point of comparison: `CCn1ccnc1CN1CCCN(C(=O)c2ccc(C#N)cc2)CC1`, cytotoxicity at 70.5 h 0.738%. Against it:
- CCN1C[C@H]2CCN(C(=O)NC3CCCC3)CC[C@H]2S1(=O)=O — higher, 12.8%
- Cc1nc(N2CCCC2)nc2c1CCN(C(=O)C1CCCC1)CC2 — lower, -9.52%
- Cc1cccc(C2N3CCC4(CC3)c3[nH]c5ccccc5c3CCN24)n1 (stereo not given) — higher, 5.13%
- Fc1ccc2[nH]c3c(c2c1)CCN1C(c2ccncc2)N2CCC31CC2 (stereo not given) — higher, 22.4%
- CC1CCc2nn(CCNC(=O)Cc3ccccc3F)c(=O)cc2C1 (stereo not given) — higher, 0.912%
- CC1CCc2nn(CCNC(=O)Cc3ccc(F)cc3)c(=O)cc2C1 (stereo not given) — lower, -4.91%
- Cn1ccnc1CN1CCCC(CCCc2ccccn2)(C(N)=O)C1 (stereo not given) — lower, -4.1%
- Fc1ccccc1Oc1nccnc1C1CCN(C2CCOCC2)CC1 — higher, 30.2%
- CC(C)CC(=O)NC[C@H]1CC[C@H](C(c2ccccn2)N(C)C)CC1 (stereo not given in full) — lower, -3.76%
- CN(C)C(c1ccccn1)[C@H]1CC[C@H](CNC(=O)C2CCCC2)CC1 (stereo not given in full) — lower, -2.3%
- Cc1c(C(=O)N(C)CC(F)(F)F)nnn1-c1ccc(F)cc1 — lower, 0.0353%
- Cc1cnc2[nH]c(C(F)(F)F)c(CN3CCOCC3)c2c1 — higher, 21.8%
- CCn1cc(C(=O)NCCc2nc(-c3ccc(C)cc3)n[nH]2)c(C)n1 — lower, -4.26%
- CCn1ncc(C(=O)NCCc2nc(-c3ccc(C)cc3)n[nH]2)c1C — lower, -0.645%
- Cc1nc(C)n(CCNC(=O)C2(C)CC(c3ccccc3)=NO2)n1 (stereo not given) — higher, 1.37%
- Cn1ccc(C2CCCCCN2C(=O)c2cccnc2)n1 (stereo not given) — lower, -2.46%
- Cc1ccc2nc(C)cc(NCCNS(=O)(=O)c3cccnc3)c2c1 — lower, -2.02%
- COc1cc2c(cc1CN1CCc3sccc3C1C)OCCO2 (stereo not given) — higher, 2.33%
- CC(C)CC(=O)N1C[C@H]2CCCN(S(=O)(=O)c3ccc(Cl)s3)[C@H]2C1 — higher, 14.6%
- CNc1cccc(C2CN(C(=O)c3c[nH]cn3)CCO2)n1 (stereo not given) — higher, 5.85%
- Cc1noc(C)c1CCC(=O)NCC1(O)CCCN(c2ccccn2)C1 (stereo not given) — lower, -5.72%
- CC(=O)N1CCC(c2cncc(N3CCCC(O)C3)n2)CC1 (stereo not given) — lower, -4.12%
- Cc1nccnc1C1CCN(C2CCCC2O)CC1 (stereo not given) — lower, -0.726%
- c1cc2cc[nH]c2c(CC2CN(Cc3cncs3)C2)n1 — higher, 7.7%
- CN(C)S(=O)(=O)N1CC(c2nc(N)ncc2-c2ccc(F)cc2)C1 — lower, -0.38%
- CNc1cc(C2CN(C(=O)c3cnn(C)c3)CCO2)nc(C)n1 (stereo not given) — higher, 13.9%
- CNc1ncc(C(=O)N2CCOC(C(=O)Nc3ccccc3)C2)cn1 (stereo not given) — lower, -2.73%
- CN1CCCC1c1cncc(C(=O)NCc2ccccc2)n1 (stereo not given) — lower, -2.59%
- O=C(Cc1cccnc1)N1CC(Cc2nccc3cc[nH]c23)C1 — higher, 6.89%
- Cc1c(CCC(=O)N2CCOC(c3cnccn3)C2)cnn1C (stereo not given) — lower, -2.28%
- Cc1cc2nccc(C3CCN(C(=O)c4ccccc4F)CC3)n2n1 — lower, -4.04%
- Cc1cc(C)nc(N2CCCC2c2[nH]ncc2C(=O)N(C)C)n1 (stereo not given) — lower, -3.67%
- COCCC(=O)N1C[C@@H](c2ccccc2F)[C@@]2(CCCC(=O)N2)C1 — lower, -7.07%
- Oc1cc(-c2ccsc2)nc(C2CCN(Cc3ccncc3)CC2)n1 — lower, -3.71%
- CN1CCCC1c1cncc(C(=O)NCC2CC2)n1 (stereo not given) — lower, -6.82%
- CC(C)(C)OC(=O)N[C@@H]1C[C@@H](O)CN(C(=O)c2ccc(F)cc2)C[C@H]1O — lower, -2.5%
- CNC(=O)C1(CCCc2ccccn2)CN(Cc2nccn2C)C1 — lower, -9.75%
- Cn1ccnc1CN1CCC(CCCc2ccccn2)(C(N)=O)CC1 — lower, -13.4%
- Cc1cccc(CN2CCCC[C@H]3CN(c4ncccn4)C[C@H]32)c1 — higher, 5.5%
- O=S(=O)(c1cn[nH]c1)N1C[C@@H](O)[C@H](N2CCc3ccccc3C2)C1 — lower, -7.48%
- Cc1ncsc1CN1CCOC(C)(C(=O)N(C)C)C1 (stereo not given) — higher, 20%
- CNc1cc(C2CCCN2C(=O)CCc2cnn(C)c2C)ccn1 (stereo not given) — lower, -8.49%
- CC(C)(C)CN1CCCC(c2nccnc2Nc2cnccn2)C1 (stereo not given) — lower, -12.3%
- c1cnc(CC2CCN(c3cnccn3)CC2)cn1 — lower, -7.05%
- NC(=O)c1cnc(NC2CC2)nc1CCNC(=O)CC1CCCC1 — lower, -14.3%
- CN1CCC(c2cccc(C(=O)N(C)C)n2)CC1 — lower, -7.65%
- O=C(NC[C@H]1CC[C@H](c2ccnc3ncnn32)CC1)c1ccccn1 — lower, -6.58%
- N#Cc1cccc(CNc2ccc(F)cc2OCCO)c1 — lower, -6.47%
- Cn1cc(C(=O)NCCc2csc(-c3ccccc3)n2)ccc1=O — lower, -2.1%
- Cc1cc(OCC(N)=O)ccc1NC(=O)C(C)Cc1ccccc1F (stereo not given) — lower, -2.1%
- Cc1ccc(C(=O)NS(=O)(=O)Cc2ccccc2)cc1S(C)(=O)=O — lower, -2.97%
- CS(=O)(=O)c1cc(NC(=O)COc2ccccc2F)cc(C(=O)O)c1 — lower, -2.84%
- Cc1ccnc(N2CCCC(c3nncn3C3CC3)C2)n1 (stereo not given) — lower, -2.88%
- Cc1cccn2cc(CC(=O)N(CCN(C)C)CC3CCCO3)nc12 (stereo not given) — higher, 17.3%
- CC(c1ccncc1)N(C)S(C)(=O)=O (stereo not given) — lower, -5.4%
- CSCC(C)NS(=O)(=O)c1ccc(C)c(N(C)C)c1 (stereo not given) — lower, -4.35%
- Cc1ccc(C(O)CN(C)Cc2cnn(C)c2)cc1C (stereo not given) — lower, -1.99%
- CC(C)(C)c1ncc(C(=O)NCc2cccc(C(=O)N3CCCC3)c2)s1 — lower, -1.76%
- Cc1ccc(-c2nnc(CCC(=O)N3CCCC3c3ccc[nH]3)o2)cc1 (stereo not given) — lower, -2%
- COc1ccc(CNC(=O)Nc2ccc(S(=O)(=O)C(F)F)cc2)cc1 — higher, 8.9%
- COc1ccc(Br)cc1NCC(=O)NC(C)(C#N)C1CC1 (stereo not given) — higher, 2.31%
- Cc1cccc(C(=O)N2CCCC2)c1NCC(=O)NC(C)(C#N)C1CC1 (stereo not given) — higher, 28.8%
- Cc1cccc(C(=O)N2CCCC2)c1NCC(=O)NC1(C#N)CCCC1 — lower, -4.19%
- O=C(COc1ccc2c(c1)CCCC2=O)NCc1ccco1 — lower, -4.86%
- CC(C)(Oc1ccc2c(c1)CCCC2=O)C(=O)NCc1ccco1 — lower, -2.8%
- CCCS(=O)(=O)C(C)C(=O)Nc1ccc2oc(C3CC3)nc2c1 (stereo not given) — lower, -2.1%
- Cc1c(C(=O)NCC(F)(F)F)nnn1-c1ccccc1Cl — lower, -3.49%
- COc1cccc(C(C)N2CCN(S(C)(=O)=O)CC2)c1 (stereo not given) — higher, 28.7%
- Cc1nc(-c2ccc(CO)cc2)cc(C2CCNCC2)n1 — lower, -2.27%
- c1cc(CC2CCCNC2)nc(NCCc2cnccn2)c1 (stereo not given) — lower, -11.1%
- CCc1nccn1-c1cncc(C2CCCN2)n1 (stereo not given) — lower, -8.79%
- COc1cccc(Nc2nc(-c3ccncc3)nc3c2CNCC3)c1 — higher, 24.2%
- O=C(c1ccco1)N1CCOCC2(CCN(C3CCOCC3)C2)C1 (stereo not given) — lower, -8.45%
- O=C(N1CCOCC1)[C@@]12CCO[C@@H]1CCN(Cc1ccccc1F)C2 — lower, -9.82%
- Fc1cnc(N2C[C@H]3CCC[C@@]3(COc3ccccn3)C2)nc1 — lower, -7.17%
- c1cncc(CO[C@H]2CO[C@@]3(CCN(Cc4ccoc4)C3)C2)c1 — lower, -20.1%
- CO[C@H]1CCN(Cc2cnn(C)c2)[C@@H]2CN(Cc3cccnc3)C[C@H]12 — lower, -25.8%
- OCCN(Cc1ccncc1)CC1(c2ccc(Cl)cc2)CC1 — lower, -4.99%
- Fc1ccc([C@@H]2COC[C@H]2NCc2cccc(F)c2)cc1 — lower, -3.65%
